Experimental data: ChEMBL document CHEMBL1145498, “A systematic interaction map of validated kinase inhibitors with Ser/Thr kinases” (Proc Natl Acad Sci U S A, 2007)

How the values were obtained:
[1] = target: Calcium/calmodulin-dependent protein kinase kinase 2 (Homo sapiens, UniProt Q96RR4)
[2] = target: Casein kinase I isoform gamma-3 (Homo sapiens) (UniProt Q9Y6M4)
[3] = target: Cyclin-dependent kinase-like 1 (Homo sapiens) (UniProt Q00532)
[4] = target: T1, Serine/threonine-protein kinase 4 (Homo sapiens) (UniProt Q13043)
T1 sequence (whole entry): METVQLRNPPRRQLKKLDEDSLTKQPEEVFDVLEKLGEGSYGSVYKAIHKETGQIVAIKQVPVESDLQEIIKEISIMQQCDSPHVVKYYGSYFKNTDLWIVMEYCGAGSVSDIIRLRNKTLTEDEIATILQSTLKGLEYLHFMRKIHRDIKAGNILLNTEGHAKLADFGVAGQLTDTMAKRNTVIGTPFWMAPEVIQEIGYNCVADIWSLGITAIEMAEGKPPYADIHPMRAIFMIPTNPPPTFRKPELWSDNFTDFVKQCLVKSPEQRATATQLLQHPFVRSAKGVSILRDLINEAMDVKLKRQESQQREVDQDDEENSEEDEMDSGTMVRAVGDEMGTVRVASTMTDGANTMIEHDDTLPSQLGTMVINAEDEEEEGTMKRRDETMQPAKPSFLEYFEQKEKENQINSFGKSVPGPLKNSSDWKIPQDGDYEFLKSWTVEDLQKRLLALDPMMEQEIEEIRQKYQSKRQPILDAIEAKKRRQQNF

[5] = target: Dual specificity protein kinase CLK2 (Homo sapiens) (UniProt P49760)
[6] = target: Proto-oncogene tyrosine-protein kinase Src (Homo sapiens, UniProt P12931); experiment: Inhibition of Src; details: read-out: IC50
[7] = target: STE20-like serine/threonine-protein kinase (Homo sapiens) (UniProt Q9H2G2)
[8] = target: Glycogen synthase kinase-3 beta (Homo sapiens, UniProt P49841)
[9] = target: Serine/threonine-protein kinase Nek6 (Homo sapiens) (UniProt Q9HC98)
[10] = target: Dual specificity mitogen-activated protein kinase kinase 2 (Homo sapiens, UniProt P36507)
[11] = target: T2, Dual specificity mitogen-activated protein kinase kinase 6 (Homo sapiens) (UniProt P52564)
T2 sequence (whole entry): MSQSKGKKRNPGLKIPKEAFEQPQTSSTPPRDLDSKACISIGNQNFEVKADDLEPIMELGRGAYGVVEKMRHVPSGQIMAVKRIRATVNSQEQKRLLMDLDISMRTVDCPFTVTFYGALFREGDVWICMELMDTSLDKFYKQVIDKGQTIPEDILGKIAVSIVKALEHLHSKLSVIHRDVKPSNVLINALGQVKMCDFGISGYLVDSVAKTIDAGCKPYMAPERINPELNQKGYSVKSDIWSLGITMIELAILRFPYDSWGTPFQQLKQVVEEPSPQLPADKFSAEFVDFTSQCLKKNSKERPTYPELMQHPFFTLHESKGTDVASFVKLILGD

Cyclin-dependent kinase-like 1 (Homo sapiens), sequence (Q00532 whole entry): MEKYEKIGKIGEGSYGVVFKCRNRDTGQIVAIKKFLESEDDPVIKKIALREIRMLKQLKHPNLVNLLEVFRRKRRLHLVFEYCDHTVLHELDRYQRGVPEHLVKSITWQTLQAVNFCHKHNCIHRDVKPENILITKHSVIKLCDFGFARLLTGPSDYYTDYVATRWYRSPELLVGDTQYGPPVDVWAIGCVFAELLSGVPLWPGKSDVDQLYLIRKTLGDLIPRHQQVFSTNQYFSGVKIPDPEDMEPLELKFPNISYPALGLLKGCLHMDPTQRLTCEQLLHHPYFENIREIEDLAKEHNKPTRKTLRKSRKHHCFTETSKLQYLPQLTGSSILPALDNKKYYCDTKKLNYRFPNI
Serine/threonine-protein kinase Nek6 (Homo sapiens), sequence (Q9HC98 whole entry): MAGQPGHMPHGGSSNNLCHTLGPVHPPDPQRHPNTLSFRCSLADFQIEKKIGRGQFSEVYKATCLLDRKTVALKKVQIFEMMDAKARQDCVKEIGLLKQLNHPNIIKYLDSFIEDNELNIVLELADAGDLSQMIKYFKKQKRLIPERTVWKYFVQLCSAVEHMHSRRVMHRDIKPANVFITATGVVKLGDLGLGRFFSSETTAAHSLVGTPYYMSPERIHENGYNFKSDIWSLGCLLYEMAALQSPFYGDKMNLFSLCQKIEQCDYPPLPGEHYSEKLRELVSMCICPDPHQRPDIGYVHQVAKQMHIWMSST
Calcium/calmodulin-dependent protein kinase kinase 2, sequence (Q96RR4 2-588 limits assumed): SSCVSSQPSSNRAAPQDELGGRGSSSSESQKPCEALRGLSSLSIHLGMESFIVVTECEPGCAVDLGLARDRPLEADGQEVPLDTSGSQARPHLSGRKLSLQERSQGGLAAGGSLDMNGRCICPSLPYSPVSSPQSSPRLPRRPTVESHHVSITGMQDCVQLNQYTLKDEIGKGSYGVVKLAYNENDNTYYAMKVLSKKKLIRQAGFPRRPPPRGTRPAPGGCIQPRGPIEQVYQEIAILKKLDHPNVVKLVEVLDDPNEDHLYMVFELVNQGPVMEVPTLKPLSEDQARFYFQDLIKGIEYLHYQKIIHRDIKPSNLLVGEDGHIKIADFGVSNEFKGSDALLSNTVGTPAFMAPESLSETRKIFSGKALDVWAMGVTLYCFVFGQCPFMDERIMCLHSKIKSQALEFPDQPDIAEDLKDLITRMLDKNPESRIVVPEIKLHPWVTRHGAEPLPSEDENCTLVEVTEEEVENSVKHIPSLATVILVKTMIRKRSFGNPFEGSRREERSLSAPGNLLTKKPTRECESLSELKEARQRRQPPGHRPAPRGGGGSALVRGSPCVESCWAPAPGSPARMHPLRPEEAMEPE
Dual specificity mitogen-activated protein kinase kinase 2, sequence (P36507 whole entry): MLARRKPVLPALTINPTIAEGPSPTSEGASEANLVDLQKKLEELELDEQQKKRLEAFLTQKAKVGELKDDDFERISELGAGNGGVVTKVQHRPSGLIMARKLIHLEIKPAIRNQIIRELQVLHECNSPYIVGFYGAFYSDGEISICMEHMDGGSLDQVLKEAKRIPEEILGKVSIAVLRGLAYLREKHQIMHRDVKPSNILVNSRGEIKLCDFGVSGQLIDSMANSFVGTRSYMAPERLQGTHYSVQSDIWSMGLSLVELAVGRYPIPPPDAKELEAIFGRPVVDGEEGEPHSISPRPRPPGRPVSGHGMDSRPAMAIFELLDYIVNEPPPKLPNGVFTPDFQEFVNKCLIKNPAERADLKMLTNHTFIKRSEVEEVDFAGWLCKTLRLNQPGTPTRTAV
Glycogen synthase kinase-3 beta, sequence (P49841 whole entry, looked up): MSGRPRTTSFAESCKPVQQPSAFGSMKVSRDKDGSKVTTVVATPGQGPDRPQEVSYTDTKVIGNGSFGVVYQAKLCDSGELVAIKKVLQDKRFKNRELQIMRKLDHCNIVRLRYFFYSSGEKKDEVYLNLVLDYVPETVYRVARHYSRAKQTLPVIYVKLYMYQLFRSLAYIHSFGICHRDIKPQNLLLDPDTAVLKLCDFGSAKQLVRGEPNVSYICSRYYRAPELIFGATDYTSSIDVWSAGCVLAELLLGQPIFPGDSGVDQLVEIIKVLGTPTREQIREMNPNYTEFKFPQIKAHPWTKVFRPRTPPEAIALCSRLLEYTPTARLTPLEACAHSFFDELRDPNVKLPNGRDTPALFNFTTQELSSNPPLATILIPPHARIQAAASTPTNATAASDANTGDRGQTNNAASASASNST
Casein kinase I isoform gamma-3 (Homo sapiens), sequence (Q9Y6M4 whole entry, looked up, canonical isoform): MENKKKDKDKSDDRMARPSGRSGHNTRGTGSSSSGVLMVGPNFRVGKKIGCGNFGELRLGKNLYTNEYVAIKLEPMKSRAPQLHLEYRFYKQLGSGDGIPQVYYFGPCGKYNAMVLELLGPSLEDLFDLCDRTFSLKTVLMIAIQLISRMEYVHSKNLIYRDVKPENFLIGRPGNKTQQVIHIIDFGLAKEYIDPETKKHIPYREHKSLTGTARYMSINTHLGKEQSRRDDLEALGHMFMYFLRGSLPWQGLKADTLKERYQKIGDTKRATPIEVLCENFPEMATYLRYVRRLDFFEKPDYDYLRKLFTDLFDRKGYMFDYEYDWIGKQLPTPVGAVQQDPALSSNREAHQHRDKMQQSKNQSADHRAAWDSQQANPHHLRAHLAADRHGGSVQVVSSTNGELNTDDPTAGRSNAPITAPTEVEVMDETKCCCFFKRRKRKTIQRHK
Dual specificity protein kinase CLK2 (Homo sapiens), sequence (P49760 whole entry, looked up): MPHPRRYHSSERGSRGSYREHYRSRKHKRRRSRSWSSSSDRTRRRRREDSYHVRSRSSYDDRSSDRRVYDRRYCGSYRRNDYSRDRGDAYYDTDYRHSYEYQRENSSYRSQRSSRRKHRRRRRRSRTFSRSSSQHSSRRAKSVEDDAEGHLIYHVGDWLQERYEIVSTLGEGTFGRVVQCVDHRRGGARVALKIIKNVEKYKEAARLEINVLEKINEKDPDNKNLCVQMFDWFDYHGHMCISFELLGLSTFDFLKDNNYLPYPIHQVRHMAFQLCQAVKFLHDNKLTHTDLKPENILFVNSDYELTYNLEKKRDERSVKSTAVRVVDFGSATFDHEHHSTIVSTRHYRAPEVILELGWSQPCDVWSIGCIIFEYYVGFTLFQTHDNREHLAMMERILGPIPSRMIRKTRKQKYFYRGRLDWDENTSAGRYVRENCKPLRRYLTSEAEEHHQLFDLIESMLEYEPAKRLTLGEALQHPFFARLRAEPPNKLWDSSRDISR
STE20-like serine/threonine-protein kinase (Homo sapiens), sequence (Q9H2G2 whole entry, looked up): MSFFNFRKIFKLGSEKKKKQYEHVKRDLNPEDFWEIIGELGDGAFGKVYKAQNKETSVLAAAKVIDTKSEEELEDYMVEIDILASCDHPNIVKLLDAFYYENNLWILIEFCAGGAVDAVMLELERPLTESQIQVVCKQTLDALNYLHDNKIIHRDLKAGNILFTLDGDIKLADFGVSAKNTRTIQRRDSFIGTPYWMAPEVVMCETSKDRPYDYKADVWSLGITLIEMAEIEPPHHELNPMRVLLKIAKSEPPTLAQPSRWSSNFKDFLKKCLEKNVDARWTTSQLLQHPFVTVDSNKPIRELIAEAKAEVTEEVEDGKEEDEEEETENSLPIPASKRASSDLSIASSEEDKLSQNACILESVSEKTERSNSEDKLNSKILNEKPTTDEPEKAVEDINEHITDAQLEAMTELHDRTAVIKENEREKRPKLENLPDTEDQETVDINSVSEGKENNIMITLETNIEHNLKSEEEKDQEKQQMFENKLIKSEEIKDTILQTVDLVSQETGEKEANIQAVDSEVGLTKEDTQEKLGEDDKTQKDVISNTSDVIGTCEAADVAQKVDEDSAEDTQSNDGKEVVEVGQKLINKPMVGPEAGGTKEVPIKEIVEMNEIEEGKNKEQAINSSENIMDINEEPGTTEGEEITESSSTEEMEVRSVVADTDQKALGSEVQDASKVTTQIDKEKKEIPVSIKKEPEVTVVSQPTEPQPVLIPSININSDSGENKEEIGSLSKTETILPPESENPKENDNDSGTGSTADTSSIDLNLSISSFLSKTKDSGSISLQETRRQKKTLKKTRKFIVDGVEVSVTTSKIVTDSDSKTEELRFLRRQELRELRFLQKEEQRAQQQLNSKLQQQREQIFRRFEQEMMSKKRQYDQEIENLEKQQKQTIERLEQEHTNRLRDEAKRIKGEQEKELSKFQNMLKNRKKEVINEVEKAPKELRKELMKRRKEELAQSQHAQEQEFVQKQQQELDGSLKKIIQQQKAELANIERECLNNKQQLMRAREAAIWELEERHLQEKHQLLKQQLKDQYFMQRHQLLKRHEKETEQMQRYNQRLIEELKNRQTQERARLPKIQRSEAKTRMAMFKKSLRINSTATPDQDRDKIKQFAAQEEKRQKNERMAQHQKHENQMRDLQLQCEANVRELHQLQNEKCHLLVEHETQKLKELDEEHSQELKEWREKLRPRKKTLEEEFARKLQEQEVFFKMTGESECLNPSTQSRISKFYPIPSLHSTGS
Proto-oncogene tyrosine-protein kinase Src, sequence (P12931 2-536 limits assumed): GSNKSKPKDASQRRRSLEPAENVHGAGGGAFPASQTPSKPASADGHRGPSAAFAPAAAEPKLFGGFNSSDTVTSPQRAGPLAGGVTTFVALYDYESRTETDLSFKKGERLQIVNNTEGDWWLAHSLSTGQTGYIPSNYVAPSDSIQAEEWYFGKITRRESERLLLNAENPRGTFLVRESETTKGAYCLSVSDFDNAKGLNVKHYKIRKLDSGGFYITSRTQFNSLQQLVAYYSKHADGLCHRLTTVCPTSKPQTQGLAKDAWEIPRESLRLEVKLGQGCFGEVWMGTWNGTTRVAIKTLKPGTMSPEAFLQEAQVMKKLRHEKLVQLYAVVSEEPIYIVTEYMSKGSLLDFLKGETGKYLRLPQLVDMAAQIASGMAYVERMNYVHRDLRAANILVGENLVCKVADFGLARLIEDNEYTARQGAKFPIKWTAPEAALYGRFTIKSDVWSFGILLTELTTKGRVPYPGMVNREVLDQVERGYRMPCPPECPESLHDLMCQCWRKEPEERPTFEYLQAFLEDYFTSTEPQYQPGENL

Row | SMILES | ΔTm [1] | ΔTm [2] | ΔTm [3] | ΔTm [4] | ΔTm [5] | IC50 [6] | ΔTm [7] | ΔTm [8] | ΔTm [9] | ΔTm [10] | ΔTm [11]
1 | CN(C)S(=O)(=O)c1ccc2c(c1)/C(=C/c1cc3c([nH]1)CCCC3)C(=O)N2 | 7.6 °C | 0.6 °C | 0 °C | 8.7 °C | 4.8 °C | 280 nM | 6.2 °C | -0.3 °C | 0.8 °C | 7 °C | 0.3 °C
2 | CC(C)(C)n1nc(-c2cccc3ccccc23)c2c(N)ncnc21 | 0.7 °C | 0.5 °C | -0.5 °C | 3.2 °C | 0.8 °C | – | 6.1 °C | 0.1 °C | 0.1 °C | 3.2 °C | 3.5 °C
3 | CN(c1cccnc1)c1cc2c(Nc3ccc(F)c(Cl)c3)c(C#N)cnc2cn1 | 1.9 °C | 3.7 °C | 5.4 °C | 0.4 °C | 4.3 °C | – | 4.2 °C | 6.3 °C | 1.5 °C | 2.1 °C | 0.4 °C
4 | Cc1[nH]c(/C=C2\C(=O)Nc3ccc(S(=O)(=O)N(C)c4cccc(Cl)c4)cc32)c(C)c1C(=O)N1CCN(C)CC1 | 1.2 °C | 1.1 °C | -0.5 °C | 0.1 °C | 5.9 °C | – | 2.4 °C | 4.2 °C | 0.4 °C | 1 °C | 3 °C
5 | Cc1ccc(NC(=O)c2cccc(N(C)C)c2)cc1NC(=O)c1ccc(O)cc1 | 0.4 °C | 0.3 °C | -0.4 °C | 0 °C | 0.2 °C | – | 0.9 °C | 0 °C | 0.3 °C | 0.4 °C | 0 °C
6 | O=C1NC(=O)C(c2cn(CCCn3ccnc3)c3ccccc23)=C1Nc1ccccc1 | 3.8 °C | 0.5 °C | 0.3 °C | 0.8 °C | 4.3 °C | – | 4.8 °C | 8.4 °C | -0.1 °C | 0.4 °C | 0.9 °C
7 | O=C1NC(=O)c2c1c1c3ccccc3n3c1c1c2c2ccccc2n1C1CCC3O1 | -0.3 °C | 0.3 °C | -0.4 °C | 4.7 °C | 1.7 °C | – | 0.1 °C | -0.2 °C | -0.3 °C | -0.2 °C | -0.2 °C
8 | C[C@@H]1C[C@H]2O[C@@H]2/C=C\C=C\C(=O)Cc2c(Cl)c(O)cc(O)c2C(=O)O1 [RADICICOL] | -0.1 °C | 0.1 °C | -0.2 °C | 0.3 °C | 0.1 °C | – | 0.4 °C | -0.3 °C | -0.6 °C | 0 °C | 0 °C
9 | COc1cc2ncnc(Nc3ccc(NC(=O)c4ccccc4)cc3)c2cc1OC [ANILINOQUINAZOLINE1] | 1.3 °C | 0.3 °C | 0 °C | 0.6 °C | 0 °C | – | 0.1 °C | 2.9 °C | 0.5 °C | 0 °C | 0.2 °C
10 | CN(C)CCCn1cc(C2=C(c3c[nH]c4ccccc34)C(=O)NC2=O)c2ccccc21 [GF-109203] | 2.6 °C | 0.3 °C | 0.7 °C | 5.7 °C | 4.1 °C | – | 6.8 °C | 8.7 °C | 0.9 °C | 0.1 °C | 1.1 °C
11 | Brc1c(Br)c(Br)c2[nH]nnc2c1Br [TETRABROMOBENZOTRIAZOLE] | -0.5 °C | -0.3 °C | -0.4 °C | 3.3 °C | 2.4 °C | – | 1.2 °C | 2.4 °C | 0.6 °C | 1.6 °C | 2.4 °C
12 | CN(C)c1ncnc2nc[nH]c12 [DIMETHYLADENINE] | 1 °C | 0.5 °C | 0 °C | 1.1 °C | 0.9 °C | – | 0.8 °C | 0.7 °C | 0 °C | -0.2 °C | 0.2 °C
